Test results: paper PMC8752738, “A propolis-derived small molecule ameliorates metabolic syndrome in obese mice by targeting the CREB/CRTC2 transcriptional complex” (Nature Communications, 2022)
“And” between values parts separate entries of the source, which are not always exact repeats. Equal values may be shown once.

Columns and labels:
[1] = tested on: PPARα, RXRα or LXRα; assay: PPRE-LUC reporter in HEK293T; assay type: cell-based; conditions: for relative PPRE-LUC: individual replicates, Supp. Fig.6 c; for relative PPRE-LUC, mean: N=3
Description: 1 c) Luciferase reporter activity of PPRE-LUC (PPAR response element driven luciferase reporter) in
2 HEK293T cell transfected with expression plasmids for Ppara, Rxra or Lxra with 8-h incubation of
3 APC (10 µM). One of three independent experiments presented here. Data are represented as
4 mean ± SEM. (n=3 per treatment). *, p < 0.05; **, p < 0.01; p values were determined by two-way

[2] = Cholesterol, TG, NEFA and glycerol in serum and liver; assay type: in vivo, mouse; parameters: liver NEFA, Mean 2 (group mean) / Plasma VLDL cholesterol in db/db mice (VLDL-C) / Plasma VLDL cholesterol in db/db mice, group mean / TC in liver_CT2KO (total cholesterol in the liver of CRTC2-KO) / TC in liver_WT (total cholesterol in the liver) / TC in liver_WT, mean / TC in liver_WT, Mean Diff. VEH vs. drug / TC in liver_CRTC2KO, mean / TC in liver_CRTC2KO, Mean Diff. VEH vs. drug: unit not given here; conditions: for liver TG normolized by protein: individual animals; for plasma NEFA / plasma NEFA, Mean 2 (group mean): Figure 5g; for plasma NEFA, Mean 2 (group mean): vs 0mg/kg mean 1.02; for liver glycerol/protein: Figure 5i; for hepatic NEFA / liver NEFA, Mean 2 (group mean): Figure 5h; for liver NEFA, Mean 2 (group mean): vs 0mg/kg mean 165.9; for Plasma total cholesterol, Mean 1 (drug group): N 6
Description: Serum total cholesterol (TC), LDL cholesterol (LDL-C), and HDL cholesterol (HDL-C) levels were detected using commercial kits (Beihua, China), and serum VLDL protein was determined by ELISA (Jiancheng, China).
The plasma TG and NEFA levels were determined using corresponding kits from Beihua (China) and WAKO (Japan), respectively. The TG levels of liver and WAT were tested by TG kit (Applygene, China). The NEFA in the liver and WAT were extracted by chloroform–methanol and then subjected to NEFA assay (WAKO).

[3] = APC-10mg/kg, individual mice, 10 mg/kg
[4] = APC-20mg/kg, individual mice, 20 mg/kg
[5] = HF mice plasma, APC 10 mg/kg, N=5

With `CC(C)=CCc1cc(C=CC(=O)O)cc(CC=C(C)C)c1O` [APC, 3,5-diprenyl-4-hydroxycinnamic acid] the “activity of PPRE-luc induced by PPARα, RXRα or LXRα” value ([1]; HEK293T, APC 10 µM, 8-h) was “did not alter”, the “relative PPRE-LUC, Mean Diff. APC - Ctrl” value ([1]; overexpressed gene: LXRa) was 0.2098 and the “relative PPRE-LUC” value ([1]; overexpressed gene: LXRa) was 3.9435 and 4.3354 and 5.6775. The “relative PPRE-LUC, mean” value ([1]; overexpressed gene: LXRa) was 4.652, the “relative PPRE-LUC, Mean Diff. APC - Ctrl” value ([1]; overexpressed gene: PPARa) was -2.353 and the “relative PPRE-LUC” value ([1]; overexpressed gene: PPARa) was 39.2490 and 43.4175 and 53.1308. For the same compound, the “relative PPRE-LUC, mean” value ([1]; overexpressed gene: PPARa) was 45.27, the “relative PPRE-LUC, Mean Diff. APC - Ctrl” value ([1]; overexpressed gene: RXRa) was 3.509 and the “relative PPRE-LUC” value ([1]; overexpressed gene: RXRa) was 53.5690 and 51.6829 and 53.7514. The “relative PPRE-LUC, mean” value ([1]; overexpressed gene: RXRa) was 53, the “relative PPRE-LUC, Mean Diff. APC - Ctrl” value ([1]; overexpressed gene: pcDNA) was -0.0701 and the “relative PPRE-LUC” value ([1]; overexpressed gene: pcDNA) was 0.7140 and 0.9259 and 1.1498. The “relative PPRE-LUC, mean” value ([1]; overexpressed gene: pcDNA) was 0.9299, the “liver TG normolized by protein” value ([2]; APC 10 mg/kg) was 86.3991 µM/mg and 171.894 µM/mg and 414.053 µM/mg and 275.641 µM/mg and 201.326 µM/mg and the “liver TG normolized by protein, group mean” value ([2]; APC 10 mg/kg, n=5) was 229.9. For the same compound, the “plasma NEFA” value ([2]; APC 10 mg/kg, individual mice) was 1.19 mM (2×) and 1.033 mM and 1.294 mM and 1.373 mM, the “plasma NEFA, Mean 2 (group mean)” value ([2]; APC 10mg/kg, n=5) was 1.216 and the “liver TG normolized by protein” value ([2]; APC 20 mg/kg) was 85.5962 µM/mg and 137.868 µM/mg and 107.422 µM/mg and 121.195 µM/mg and 111.821 µM/mg. For the same compound, the “plasma NEFA” value ([2]; APC 20 mg/kg, individual mice) was 1.765 mM and 1.686 mM and 1.451 mM and 1.242 mM and 1.507 mM, the “plasma NEFA, Mean 2 (group mean)” value ([2]; APC 20mg/kg, n=5) was 1.53 and the liver glycerol/protein [2, 3] was 49.7505 nM/mg and 67.3705 nM/mg and 57.1365 nM/mg and 57.0635 nM/mg and 49.612 nM/mg. The “hepatic NEFA” value [2, 3] was 39.07 mM/mg protein and 106.88 mM/mg protein and 150.80 mM/mg protein and 112.30 mM/mg protein and 101.67 mM/mg protein, the “liver NEFA, Mean 2 (group mean)” value ([2]; APC-10mg/kg, n=5) was 102.1 and the liver glycerol/protein [2, 4] was 43.0466 nM/mg and 45.5622 nM/mg and 43.2605 nM/mg and 44.1634 nM/mg and 41.762 nM/mg. The “hepatic NEFA” value [2, 4] was 39.34 mM/mg protein and 26.14 mM/mg protein and 65.42 mM/mg protein and 29.72 mM/mg protein and 45.95 mM/mg protein, the “liver NEFA, Mean 2 (group mean)” value ([2]; APC-20mg/kg, n=5) was 41.31 and the “NEFA and glycerol levels in the liver” value ([2]; DIO mice) was “reduced”. The “NEFA levels in the plasma” value ([2]; DIO mice) was “significantly enhanced”, the “TG in serum and liver; TC, LDL-C, HDL-C, VLDL-C in serum” value ([2]; DIO mice, i.p. daily 5 weeks) was “reduced” and the “Plasma total cholesterol, Mean Diff. vs. VEH” value ([2]; Figure 6h, CRTC2KO mice) was 5.091 mg/dL. The “Plasma total cholesterol, Mean 1 (drug group)” value ([2]; Figure 6h, CRTC2KO mice) was 223.9 mg/dL, the “TC in plasma_CRTC2KO (plasma total cholesterol)” value ([2]; Figure 6h, CRTC2KO mice, individual mice) was 238.201 mg/dL and 210.746 mg/dL and 206.493 mg/dL and 224.280 mg/dL and 219.253 mg/dL and 244.388 mg/dL and the “Plasma total cholesterol, Mean Diff. vs. VEH” value ([2]; Figure 6h, WT mice) was -70.45 mg/dL. For the same compound, the “Plasma total cholesterol, Mean 1 (drug group)” value ([2]; Figure 6h, WT mice) was 208.1 mg/dL, the “TC in plasma_WT (plasma total cholesterol)” value ([2]; Figure 6h, WT mice, individual mice) was 239.748 mg/dL and 207.149 mg/dL and 201.100 mg/dL and 213.669 mg/dL and 202.239 mg/dL and 184.451 mg/dL and the “Plasma HDLC, group mean” value [2, 5] was 108.7. The “Plasma LDLC, group mean” value [2, 5] was 35.65.
